# In PubChem BioAssay (NCI):
#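 Results reflect a 48-hour exposure of cells in 96-well plates to compound at five concentrations. Here, GI50 denotes the concentration required for 50% inhibition of growth. TGI is the concentration that stops growth completely.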
# How the values were obtained:
# Assay in all cases: DTP human tumour cell line panel, 48 h
# [1] = system: NCI-H23 lung
# [2] = system: LOX IMVI melanoma
# [3] = system: UACC-257 melanoma
# [4] = system: DU-145 prostate
# [5] = system: HOP-62 NSCLC
# [6] = system: HT29 colon
# [7] = system: HCT-15 colon
# [8] = system: SK-MEL-2 melanoma
# [9] = system: MCF7 breast
# [10] = system: UO-31 renal
SMILES,GI50 [1],TGI [1],GI50 [2],TGI [2],GI50 [3],TGI [3],GI50 [4],TGI [4],GI50 [5],TGI [5],GI50 [6],TGI [6],GI50 [7],GI50 [8],TGI [8],GI50 [9],TGI [9],GI50 [10],TGI [10],TGI [7]
OCC1OC(n2cnc3c(NCc4ccccc4O)ncnc32)C(O)C1O (centres undefined),0.457 µM,4.46 µM,0.0695 µM,3.62 µM,> 83.6 µM,> 100 µM,0.224 µM,> 32 µM,2.33 µM,18.2 µM,2.23 µM,52.9 µM,0.432 µM,0.328 µM,1.83 µM,2.05 µM,17.1 µM,0.717 µM,13.8 µM,
CC(=O)/C=C/c1ccc(N(CCO)Cc2ccc(C(C)(C)C)cc2)cc1,63.7 µM,235 µM,28.3 µM,134 µM,78.1 µM,217 µM,73.2 µM,206 µM,104 µM,231 µM,27.7 µM,103 µM,27.8 µM,96.7 µM,233 µM,26.5 µM,118 µM,22.5 µM,122 µM,124 µM
OCC1OC(n2cnc3c(NCc4ccco4)ncnc32)C(O)C1O (centres undefined),2.87 µM,31.8 µM,0.338 µM,1.48 µM,52.5 µM,> 100 µM,1.27 µM,4.14 µM,3.79 µM,> 48.9 µM,2.1 µM,> 38 µM,0.524 µM,5.43 µM,31.6 µM,0.72 µM,> 25.5 µM,0.567 µM,53.7 µM,> 28.1 µM
Nc1nc(N)c(-c2ccc(Cl)c(Cl)c2)c(CP(Cl)(Cl)(Cl)Br)n1,19.6 µM,> 100 µM,2.72 µM,> 100 µM,8.35 µM,84.7 µM,9.33 µM,> 100 µM,72.7 µM,> 100 µM,6.14 µM,> 100 µM,4.26 µM,17.9 µM,48.7 µM,16.1 µM,> 100 µM,17.5 µM,> 100 µM,> 100 µM
COc1ccc(C(Nc2ccccn2)c2cc(C(C)(C)C)cc(C(C)(C)C)c2O)cc1 (centres undefined),,51.2 µM,,35.8 µM,,> 100 µM,,> 100 µM,,78.2 µM,,> 100 µM,,,43.2 µM,,> 100 µM,,> 100 µM,> 100 µM
C/C=C(\C)C(=O)O[C@@H]1C=CC(=O)O[C@H]1CNC(=O)[C@H](C)O,25.6 µM,> 75.4 µM,15.9 µM,31.3 µM,26.9 µM,> 84.4 µM,22.6 µM,69.1 µM,26.4 µM,65.3 µM,17.7 µM,40.6 µM,18.5 µM,20 µM,48.5 µM,15 µM,46.7 µM,21.3 µM,59.1 µM,45.4 µM
COc1ccc2nc3ccccc3c(NCc3ccccc3)c2c1,1.95 µM,5.52 µM,1.61 µM,3.29 µM,2.16 µM,4.88 µM,3.18 µM,10.3 µM,2.62 µM,9.95 µM,1.8 µM,6.23 µM,1.83 µM,2.2 µM,4.9 µM,2.01 µM,4.89 µM,1.54 µM,5.34 µM,4.46 µM
Cc1cn(C2CC(O)C(COC(N)=O)O2)c(=O)[nH]c1=O (centres undefined),,> 100 µM,,> 100 µM,,> 100 µM,,> 100 µM,,> 100 µM,,> 100 µM,,,> 100 µM,,> 100 µM,,> 100 µM,> 100 µM
C=C1C(=O)O[C@H]2[C@H]1CC/C(COC(=O)N[C@H](Cc1c[nH]c3ccccc13)C(=O)OC)=C\CC[C@@]1(C)O[C@@H]21,4.3 µM,17.7 µM,1.36 µM,2.85 µM,2.89 µM,8.74 µM,1.61 µM,4.37 µM,12.5 µM,28.5 µM,2.46 µM,7.92 µM,1.53 µM,7.21 µM,23.8 µM,1.24 µM,2.99 µM,1.49 µM,2.84 µM,3.43 µM
CCS(=O)(=O)N1CCN(c2ccc(Nc3ncc(C(N)=O)c(NC4CC4)n3)cc2)CC1,5.46 µM,> 100 µM,3.07 µM,> 100 µM,21.2 µM,> 100 µM,8.63 µM,> 100 µM,3.51 µM,29.7 µM,6.14 µM,21.6 µM,2.64 µM,4.62 µM,21.4 µM,4.77 µM,> 100 µM,1.1 µM,18.4 µM,27.1 µM
C=CCN1C(=O)[C@]2(SC1=S)[C@H](c1cccc(Cl)c1)CN(C)[C@]21C(=O)NC2C=CC(Cl)=C[C@H]21 (some centres undefined),6.12 µM,22 µM,1.73 µM,3.95 µM,12.2 µM,35.8 µM,4.16 µM,14.6 µM,3.59 µM,16.2 µM,1.67 µM,3.85 µM,2.89 µM,8.13 µM,24.2 µM,2.68 µM,11.7 µM,1.85 µM,9.06 µM,13.1 µM
CCC(C(=O)[C@@H](C)[C@@H](O)[C@H](C)[C@@H]1O[C@@H]([C@@H](CC)C(=O)ONC(=O)c2ccccc2)CC[C@@H]1C)[C@H]1O[C@]2(C=CC(=O)[C@]3(CC[C@@](C)([C@H]4CC[C@](O)(CC)[C@H](C)O4)O3)O2)[C@H](C)C[C@@H]1C (some centres undefined),0.175 µM,2.08 µM,0.316 µM,1.84 µM,0.255 µM,5.61 µM,0.511 µM,1.98 µM,0.161 µM,1.95 µM,0.387 µM,2.1 µM,0.349 µM,1.07 µM,2.91 µM,0.0869 µM,1.62 µM,0.403 µM,1.79 µM,1.61 µM
N/C(=N/S(=O)(=O)c1cc(C(=O)Nc2ccc(F)cc2)c(Cl)cc1SCc1ccccc1)Nc1ccccc1O,2.04 µM,3.86 µM,1.76 µM,3.41 µM,12.2 µM,26.7 µM,1.83 µM,3.56 µM,2.04 µM,4.52 µM,11 µM,> 100 µM,37.1 µM,2.13 µM,4.02 µM,2.79 µM,6.13 µM,17.3 µM,37.4 µM,> 100 µM
